This passage reports inhibition results from patent US20240116845A1, “INDENE COMPOUNDS, PHARMACEUTICAL COMPOSITIONS THEREOF, AND THEIR THERAPEUTIC APPLICATIONS” (NucMito Pharmaceuticals Co., Ltd., priority 2021, published 2024).

Format in all cases: cell-based
Experiment [1] concerns alpha-smooth muscle actin (α-SMA). Briefly: Inhibition of TGF-β induced expression of alpha-smooth muscle actin in CFSC cells (western blot). Particulars: compound at 10 μM, TGF-β (10 ng/mL), 24 hours. How it is done: The ability of a compound to inhibit the TGF-β induced expression of alpha-smooth muscle actin (α-SMA) was evaluated in CCl4-treated fat storing (CFSC) cells. α-SMA is considered as a reliable marker of hepatic stellate cell activation and a key biomarker for liver fibrosis.
CFSC cells maintained in a DMEM medium supplemented with 10% fetal bovine serum were seeded to 12-well culture dishes and grown to a confluence of 60-70% the next day. Culture was changed to a serum-free DMEM medium and the cells were treated with the compound at 10 μM in the presence of TGF-β (10 ng/mL). The cells were incubated for another 24 hours. All culture was maintained at 37° C. in 5% carbon dioxide.
An NP-40 lysate solution (50 mM Tris, pH 7.4, 150 mM NaCl, 1% NP-40) with EDTA free cocktail added was used to lyse the cells on ice for 30 min. The lysate was collected and centrifuged at 4° C. for 10 min at 12,000 rpm. The pellet was discarded and the supernatant was transferred to a new tube. The cell lysate was loaded with 5× loading buffer and boiled for 10 min, resolved by 10% SDS-polyacrylamide gel electrophoresis (SDS-PAGE), and transferred to a PVDF membrane. The membrane was blocked with 5% skim milk in Tris-buffered saline and TWEEN® 20 (TBST; 10 mM Tris-HCl, pH 8.0, 150 mM NaCl, 0.1% TWEEN® 20) for 1 h at room temperature and then incubated with α-SMA and β-actin antibodies overnight at 4° C. After washing twice with TBST, the membrane was probed with a […] anti-immunoglobulin (1:5000 dilution) for 1 h at room temperature. After two subsequent rinses in TBST, immunoreactive products were reacted with ECL and visualized by a UVP CHEMSTUDIO™ imaging system. The western blotting bands are quantitated using an ImageJ software. The percentage of inhibition was obtained by calculating the percentage decrease in the band intensity compared to the one treated with TGF-β only.
The results are summarized in Table 1, where A represents a value no less than 80/% inhibition, B represents a value less than 80% but no less than 50% inhibition, C represents a value less than 50% but no less than 30% inhibition, and D represents a value less than 30% inhibition with a compound at 10 μM.

A further experiment deals with HepG2 (liver cancer). Briefly: Antiproliferative activity, CCK-8 cell viability. The conditions noted are these: Homo sapiens, 72 h, read-out: Inhibition of Cancerous Cells, HepG2; for inhibition at 3.3 µM: compound concentration of 3.3 μM; for inhibition at 10 µM: compound concentration of 10 μM; for inhibition at 30 µM: compound concentration of 30 μM. As to the method: (§1) The antiproliferative activity of a compound was determined in the following cell lines: MDA-MB-231 (breast cancer), HepG2 (liver cancer), SW480 (colon cancer), B16F10 (malignant melanoma), A431 (epidermoid carcinoma), A549 (lung adenocarcinoma), and HeLa (cervical cancer). MDA-MB-231, HepG2, SW480, B16F10, and A431 cells were cultured in Dulbecco's modified Eagle's medium (DMEM) containing 10% fetal bovine serum (FBS). HeLa cells were cultured in MEM/EBSS (MEM) containing 10% FBS. A549 cells were maintained in Kaighn's modification of Ham's F-12 medium containing 10% FBS. The Cell Counting Kit-8 (CCK-8) assay was used to determine the cell viability of cells following treatment with the compound.
(§2) Briefly, cells were seeded in a 96-well plate at a density of 2,000-5,000 cells/well. Following attachment, the cells were treated with the compound in media at a compound concentration of 3.3 μM, 10 μM, or 30 μM, or DMSO as a control. After the cells were incubated at 37° C. for 72 h, the CCK-8 solution (10 μL) was added to each well. After incubation at 37° C. for 4 h, the absorbance value of each well was determined using a multi-well plate reader at 450 nm. The percentage of cell viability was determined with respect to the DMSO-treated cells. The results were summarized in Table 2-4 below, wherein A represents no less than 50% inhibition of cell growth; B represents less than 50% but no less than 30% inhibition of cell growth; C represents less than 30% inhibition of cell growth.

In another experiment the test system is SW480 (colon cancer). In words: Antiproliferative activity, CCK-8 cell viability. Particulars: Homo sapiens, 72 h, read-out: Inhibition of Cancerous Cells, SW480; for inhibition at 3.3 µM: compound concentration of 3.3 μM; for inhibition at 10 µM: compound concentration of 10 μM; for inhibition at 30 µM: compound concentration of 30 μM. As to the method:
as §1, §2

For experiment [2], the system named is A549 (lung adenocarcinoma). In words: Antiproliferative activity, CCK-8 cell viability. Particulars: Homo sapiens, 72 h, read-out: Inhibition of Cancerous Cells, A549; for inhibition at 3.3 µM: compound concentration of 3.3 μM; for inhibition at 10 µM: compound concentration of 10 μM; for inhibition at 30 µM: compound concentration of 30 μM. As to the method:
as §1, §2

In a further experiment the test system is HeLa (cervical cancer). Briefly: Antiproliferative activity, CCK-8 cell viability. Particulars: Homo sapiens, 72 h, read-out: Inhibition of Cancerous Cells, HELA; for inhibition at 3.3 µM: compound concentration of 3.3 μM; for inhibition at 10 µM: compound concentration of 10 μM; for inhibition at 30 µM: compound concentration of 30 μM. How it is done: as §1, §2

For experiment [3], the system named is A431 (epidermoid carcinoma). In words: Antiproliferative activity, CCK-8 cell viability. Particulars: Homo sapiens, A-431, 72 h, read-out: Inhibition of Cancerous Cells, A431; for inhibition at 3.3 µM: compound concentration of 3.3 μM; for inhibition at 10 µM: compound concentration of 10 μM; for inhibition at 30 µM: compound concentration of 30 μM. How it is done:
as §1, §2

In experiment [4] the test system is B16F10 (malignant melanoma). Briefly: Antiproliferative activity, CCK-8 cell viability. Particulars: Mus musculus, B16-F10, 72 h, read-out: Inhibition of Cancerous Cells, B16F10; for inhibition at 3.3 µM: compound concentration of 3.3 μM; for inhibition at 10 µM: compound concentration of 10 μM; for inhibition at 30 µM: compound concentration of 30 μM. As to the method: as §1, §2

Experiment [5] deals with MDA-MB-231 (breast cancer). In words: Antiproliferative activity, CCK-8 cell viability. The conditions noted are these: Homo sapiens, 72 h, read-out: Inhibition of Cancerous Cells, MDA-MB-231; for inhibition at 3.3 µM: compound concentration of 3.3 μM; for inhibition at 10 µM: compound concentration of 10 μM; for inhibition at 30 µM: compound concentration of 30 μM. How it is done: as §1, §2

Each structure is given as a SMILES string. Bounds are passed on as bounds.

As for `CC1=C(CC(=O)O)c2cc(F)ccc2/C1=C\c1ccc(Cc2ccc(F)cc2)cc1` [Compound A3, 2-[(1Z)-5-Fluoro-2-methyl-1-({4-[4-fluorobenzyl]phenyl}methylidene)-1H-inden-3-yl]acetic acid], the inhibition at 10 µM in experiment [1] is no less than 80%; with HepG2 (liver cancer) it was no less than 50%; in the experiment with SW480 (colon cancer), no less than 50%; in experiment [2] it was no less than 50%; in the experiment on HeLa (cervical cancer) it was 30 to 50%; in experiment [3] it was no less than 50%. Further, the inhibition at 10 µM in experiment [4] was 30 to 50%; in experiment [5], no less than 50%. The inhibition at 3.3 µM with HepG2 (liver cancer) is no less than 50%; with SW480 (colon cancer), no less than 50%; in experiment [2] it was less than 30%; in the experiment on HeLa (cervical cancer), less than 30%; in experiment [3], less than 30%; in experiment [4], less than 30%. The inhibition at 3.3 µM in experiment [5] was no less than 50%. In addition, the inhibition at 30 µM (in the experiment on HepG2 (liver cancer); in the experiment with SW480 (colon cancer); in experiment [2]; with HeLa (cervical cancer); in experiment [3]; in experiment [4]) was no less than 50% in each case. Moreover, the inhibition at 30 µM in experiment [5] was no less than 50%.

As for `CC1=C(CC(=O)O)c2cc(F)ccc2/C1=C\c1cccc(OCc2ccccc2)c1` [Compound A4, 2-[(1Z)-5-Fluoro-1-(3-(benzyloxy)benzylidene)-2-methyl-1H-inden-3-yl]-acetic acid], the inhibition at 10 µM in experiment [1] is 50 to 80%; in the experiment with HepG2 (liver cancer), less than 30%; with SW480 (colon cancer) it was no less than 50%; in experiment [2], no less than 50%; with HeLa (cervical cancer) it was no less than 50%; in experiment [3], no less than 50%. Also, the inhibition at 10 µM in experiment [4] and in experiment [5] was no less than 50% throughout. The inhibition at 3.3 µM in the experiment with HepG2 (liver cancer) was less than 30%; in the experiment on SW480 (colon cancer), 30 to 50%; in experiment [2] it was 30 to 50%; in the experiment on HeLa (cervical cancer) it was 30 to 50%; in experiment [3] it was 30 to 50%; in experiment [4], no less than 50%. Besides, in experiment [5], the inhibition at 3.3 µM was no less than 50%. In addition, the inhibition at 30 µM (with HepG2 (liver cancer); with SW480 (colon cancer); in experiment [2]; with HeLa (cervical cancer); in experiment [3]; in experiment [4]) was no less than 50% each time. The inhibition at 30 µM in experiment [5] is no less than 50%.

As to `CC1=C(CC(=O)O)c2cc(F)ccc2/C1=C\c1cccc(COc2ccccc2)c1` [Compound A5, (Z)-2-(5-Fluoro-2-methyl-1-(3-(phenoxymethyl)benzylidene)-1H-inden-3-yl)acetic acid], the inhibition at 10 µM was no less than 80% in experiment [1]; no less than 50% in the experiment on HepG2 (liver cancer); no less than 50% in the experiment on SW480 (colon cancer); 30 to 50% in experiment [2]; 30 to 50% in the experiment on HeLa (cervical cancer); 30 to 50% in experiment [3]. Moreover, the inhibition at 10 µM was 30 to 50% in experiment [4] and no less than 50% in experiment [5]. In addition, the inhibition at 3.3 µM in the experiment with HepG2 (liver cancer) was no less than 50%; in the experiment with SW480 (colon cancer), no less than 50%; in experiment [2], 30 to 50%; with HeLa (cervical cancer) it was less than 30%; in experiment [3], less than 30%; in experiment [4], less than 30%. Moreover, the inhibition at 3.3 µM in experiment [5] is no less than 50%. The inhibition at 30 µM (in the experiment on HepG2 (liver cancer); in the experiment with SW480 (colon cancer); in experiment [2]; in the experiment with HeLa (cervical cancer); in experiment [3]; in experiment [4]) was no less than 50% in each case. Besides, the inhibition at 30 µM in experiment [5] is no less than 50%.

`CC1=C(CC(=O)O)c2cc(F)ccc2/C1=C\c1cccc(Oc2ccc(C(F)(F)F)cc2)c1` [Compound D26, 2-[(1Z)-5-Fluoro-2-methyl-1-({3-[4-trifluoromethylphenoxy]phenyl}-methylidene)-1H-inden-3-yl]acetic acid]: the inhibition at 10 µM in experiment [1] is no less than 80%; with HepG2 (liver cancer) it was no less than 50%; with SW480 (colon cancer), less than 30%; in experiment [2], 30 to 50%; in the experiment with HeLa (cervical cancer) it was no less than 50%; in experiment [4], no less than 50%. In addition, the inhibition at 10 µM in experiment [5] was no less than 50%. In addition, the inhibition at 3.3 µM in the experiment on HepG2 (liver cancer) was 30 to 50%; in the experiment with SW480 (colon cancer), less than 30%; in experiment [2] it was 30 to 50%; in the experiment on HeLa (cervical cancer), 30 to 50%; in experiment [4], 30 to 50%; in experiment [5], no less than 50%. The inhibition at 30 µM (with HepG2 (liver cancer); in the experiment with SW480 (colon cancer); in experiment [2]; with HeLa (cervical cancer); in experiment [4]; in experiment [5]) was no less than 50% each time.
